Experimental data from patent publication US7407954B2, “Thieno-(1,3)-oxazin-4-ones with lipase inhibiting activity” (Alizyme Therapeutics Limited, priority 2001, dated 2008).

Assays:
[1] = target: T1, porcine pancreatic lipase (Sus scrofa, UniProt P00591); assay: Lipase enzyme activity, NaOH titration method (lipid micelles); type: biochemical; settings: NaOH titration assay
T1 sequence (P00591 1-450): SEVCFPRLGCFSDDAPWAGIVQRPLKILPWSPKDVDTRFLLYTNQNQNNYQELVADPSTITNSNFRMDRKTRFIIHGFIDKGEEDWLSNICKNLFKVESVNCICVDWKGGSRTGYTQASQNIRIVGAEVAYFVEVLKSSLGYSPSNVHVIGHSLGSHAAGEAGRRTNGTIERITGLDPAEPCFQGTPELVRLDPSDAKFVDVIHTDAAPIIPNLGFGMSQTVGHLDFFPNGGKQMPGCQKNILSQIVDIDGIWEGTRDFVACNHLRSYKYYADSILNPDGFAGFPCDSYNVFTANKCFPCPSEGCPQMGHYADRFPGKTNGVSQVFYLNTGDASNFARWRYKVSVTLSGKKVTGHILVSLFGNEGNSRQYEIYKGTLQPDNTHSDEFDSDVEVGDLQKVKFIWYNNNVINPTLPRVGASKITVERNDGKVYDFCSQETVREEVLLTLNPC
Protocol: Measurement of Lipase Enzyme Activity Using a NaOH Titration Method
The inhibitory activity of the selected compound to pancreatic lipase was measured in the assay described in Pasquier et al; 1996, Vol 7, Nutritional Biochemistry, 293-302.
Log dose/response curves were constructed using a range of inhibitor concentrations.
Selected thieno-oxazinone compounds were tested in the NaOH titration assay. In this assay, the activity of porcine pancreatic lipase in a system containing lipid micelles is recorded. These conditions are therefore similar to those encountered in the gastrointestinal tract.

[2] = target: T2, human pancreatic lipase (Homo sapiens, UniProt P16233); assay: Lipase activity, quinine diimine dye colorimetric assay (Sigma Lipase-PS); type: biochemical
T2 sequence (P16233 17-465): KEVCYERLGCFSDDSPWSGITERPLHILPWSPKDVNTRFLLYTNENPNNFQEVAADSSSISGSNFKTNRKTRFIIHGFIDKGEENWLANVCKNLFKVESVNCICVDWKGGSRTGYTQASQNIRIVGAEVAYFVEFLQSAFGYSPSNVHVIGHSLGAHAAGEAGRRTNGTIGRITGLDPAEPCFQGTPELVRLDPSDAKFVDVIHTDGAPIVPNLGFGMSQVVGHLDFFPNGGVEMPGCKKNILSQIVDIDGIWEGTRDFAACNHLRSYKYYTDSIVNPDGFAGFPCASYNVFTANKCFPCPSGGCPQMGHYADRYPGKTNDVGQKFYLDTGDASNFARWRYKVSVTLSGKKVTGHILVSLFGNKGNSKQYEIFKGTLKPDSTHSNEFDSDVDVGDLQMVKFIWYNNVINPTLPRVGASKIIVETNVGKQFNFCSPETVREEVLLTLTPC
Protocol: Measurement of Lipase Activity Using a Quinine Diimine Dye Calorimetric Assay
The inhibitory activity of the selected compounds to pancreatic lipase was measured in the following assay available from Sigma Ltd (Lipase-PS™, catalog number 805-A):
The glycerol released from the action of pancreatic and monoglyceride lipase was oxidised to release H2O2. The peroxidase reaction step then produces a quinine dye which is pink in colour and absorbs light at a wavelength of 550 nm.
Individual test compounds were dissolved in DMSO (dimethyl sulphoxide) at 10 mM. DMSO was used to avoid any problems with compounds being water-insoluble.
For individual compounds, the IC50 (concentration at which lipase activity is inhibited to one half of the maximum) was calculated by measuring the inhibitory activity from log-dose response curves using a range of inhibitor concentrations.
A range of standard compounds were assayed in the quinine dye calorimetric assay which provides a rapid method to measure lipase inhibitory activity.

Row | SMILES | IC50 [1] [nM] | IC50 [2] [nM]
1 | O=c1oc(Nc2ccc(Oc3ccc(Cl)cc3)cc2)nc2sccc12 [Compound 25, 2-(4-(4-Chlorophenoxy)-phenylamino)-4H-thieno[2,3-d][1,3]oxazin-4-one] |  | < 100
2 | Cc1ccc(Oc2ccc(Nc3nc4sccc4c(=O)o3)cc2)cc1 [Compound 26, 2-(4-(4-Methylphenoxy)-phenylamino)-4H-thieno[2,3-d][1,3]oxazin-4-one] |  | < 100
3 | N#Cc1ccc(Nc2nc3sccc3c(=O)o2)cc1 [Compound 27, 2-(4-Cyanophenyl)amino-4H-thieno[2,3-d][1,3]oxazin-4-one] |  | < 100
4 | CCCc1cc2c(=O)oc(Nc3ccc(C#N)cc3)nc2s1 [Compound 28, 2-(4-Cyanophenyl)amino-6-propyl-4H-thieno[2,3-d][1,3]oxazin-4-one] |  | < 100
5 | Cc1cc2c(=O)oc(Nc3ccc(C#N)cc3)nc2s1 [Compound 29, 2-(4-Cyanophenyl)amino-6-methyl-4H-thieno[2,3-d][1,3]oxazin-4-one] |  | < 100
6 | N#Cc1ccc(Nc2nc3sc(Cc4ccccc4)cc3c(=O)o2)cc1 [Compound 30, 6-Phenylmethyl-2-(4-cyanophenyl)amino-4H-thieno[2,3-d][1,3]oxazin-4-one] |  | < 100
7 | CCCCCCCCCCCCc1cc2c(=O)oc(Nc3ccc(C#N)cc3)nc2s1 [Compound 31, 2-(4-Cyanophenyl)amino-6-dodecyl-4H-thieno[2,3-d][1,3]oxazin-4-one] |  | < 100
8 | Cc1cc2c(=O)oc(NCCCCc3ccccc3)nc2s1 [Compound 32, 6-Methyl-2-(4-phenylbutyl)amino-4H-thieno[2,3-d][1,3]oxazin-4-one] |  | < 100
9 | Cc1cc2c(=O)oc(NCCCl)nc2s1 [Compound 33, 2-(2-Chloroethyl)amino-6-methyl-4H-thieno[2,3-d][1,3]oxazin-4-one] |  | < 100
10 | COC(=O)CCCCCNc1nc2sc(C)cc2c(=O)o1 [Compound 35, 2-(5-Methoxycarbonylpentyl)amino-6-methyl-4H-thieno[2,3-d][1,3]oxazin-4-one] |  | < 100
11 | O=c1oc(Nc2ccc(Oc3ccc(C(F)(F)F)cc3)cc2)nc2ccsc12 [Compound 38, 2-(4-(4-Trifluoromethyl-phenoxy)phenylamino)-4H-thieno[3,2-d][1,3]oxazin-4-one] |  | < 100
12 | N#Cc1ccc(Nc2nc3ccsc3c(=O)o2)cc1 [Compound 40, 2-(4-Cyanophenyl)amino-4H-thieno[3,2-d][1,3]oxazin-4-one] |  | < 100
13 | CCCCCCCCCCCCNc1nc2ccsc2c(=O)o1 [Compound 41, 2-Dodecylamino-4H-thieno[3,2-d][1,3]oxazin-4-one] |  | < 100
14 | Cc1cc2nc(Nc3ccc(Oc4ccccc4)cc3)oc(=O)c2s1 [Compound 43, 5-Methyl-2-(4-phenoxy)phenylamino-4H-thieno[3,2-d][1,3]oxazin-4-one] | ≤ 1000 | < 100
15 | CCCc1cc2c(=O)oc(Nc3ccc(Oc4ccccc4)cc3)nc2s1 [Compound 44, 6-Propyl-2-(4-phenoxy)phenylamino-4H-thieno[2,3-d][1,3]oxazin-4-one] | ≤ 1000 | < 100
16 | CCCCCCCCCCCCCCCCNc1nc2sc(C)cc2c(=O)o1 [Compound 45, 2-Hexadecylamino-6-methyl-4H-thieno-[2,3-d][1,3]oxazin-4-one] | ≤ 1000 | < 100
17 | Cc1cc2c(=O)oc(Nc3ccccc3)nc2s1 [Compound 46, 6-Methyl-2-phenylamino-4H-thieno[2,3-d][1,3]oxazin-4-one] | ≤ 1000 | < 100
18 | CCCCNc1nc2sc(C)cc2c(=O)o1 [Compound 47, 2-Butylamino-6-methyl-4H-thieno[2,3-d][1,3]oxazin-4-one] | ≤ 1000 | < 100
19 | O=c1oc(Nc2ccc(Oc3ccccc3)cc2)nc2sc(Cl)cc12 [Compound 48, 6-Chloro-2-(4-phenoxy)phenylamino-4H-thieno[2,3-d][1,3]oxazin-4-one] | ≤ 1000 | < 100
20 | CCCCCCCCCCCCc1cc2c(=O)oc(Nc3ccc(Oc4ccccc4)cc3)nc2s1 [Compound 49, 6-Dodecyl-2-(4-phenoxy)phenylamino-4H-thieno[2,3-d][1,3]oxazin-4-one] | ≤ 1000 | < 100

Results, then the compound that gave them:

Row | IC50 [1] [nM] | IC50 [2] [nM] | SMILES
21 | ≤ 1000 | < 100 | O=c1oc(Nc2ccccc2)nc2sccc12 [Compound 1, 2-Phenylamino-4H-thieno[2,3-d][1,3]oxazin-4-one]
22 | ≤ 1000 | < 100 | O=c1oc(Nc2ccc(Oc3ccccc3)cc2)nc2sccc12 [Compound 5, 2-(4-Phenoxy)phenylamino-4H-thieno[2,3-d][1,3]oxazin-4-one]
23 | ≤ 1000 | < 100 | O=c1oc(Nc2ccccc2)nc2cc(-c3ccccc3)sc12 [Compound 6]
24 | ≤ 1000 | < 100 | O=c1oc(Nc2ccc(Oc3cccc(C(F)(F)F)c3)cc2)nc2sccc12 [Compound 7, 2-(4-(3-Trifluoromethyl-phenoxy)phenylamino)-4H-thieno[2,3-d][1,3]oxazin-4-one]
25 | ≤ 1000 | < 100 | CC(C)(C)c1cc2nc(Nc3ccccc3)oc(=O)c2s1 [Compound 8]
26 | ≤ 1000 | < 100 | Cc1cc2c(=O)oc(Nc3ccc(Oc4ccccc4)cc3)nc2s1 [Compound 9, 6-Methyl-2-(4-phenoxy)phenylamino-4H-thieno[2,3-d][1,3]oxazin-4-one]
27 | ≤ 1000 | < 100 | O=c1oc(Nc2ccc(Oc3ccccc3)cc2)nc2ccsc12 [Compound 10, 2-(4-Phenoxy)phenylamino-4H-thieno[3,2-d][1,3]oxazin-4-one]
28 | ≤ 1000 | < 100 | O=c1oc(Nc2ccc(Cc3ccccc3)cc2)nc2sccc12 [Compound 11, 2-(4-Phenylmethyl)phenylamino-4H-thieno[2,3-d][1,3]oxazin-4-one]
29 | ≤ 1000 | < 100 | O=C(c1ccccc1)c1ccc(Nc2nc3sccc3c(=O)o2)cc1 [Compound 12, 2-(4-Benzoyl)phenylamino-4H-thieno[2,3-d][1,3]oxazin-4-one]
30 | ≤ 1000 | < 100 | O=c1oc(Nc2ccc(Oc3ccc(C(F)(F)F)cc3)cc2)nc2sccc12 [Compound 14, 2-(4-(4-Trifluoromethyl-phenoxy)phenylamino)-4H-thieno[2,3-d][1,3]oxazin-4-one]
31 | ≤ 1000 | < 100 | O=c1oc(Oc2ccc(Oc3cccc(C(F)(F)F)c3)cc2)nc2ccsc12 [Compound 15, 2-(4-(3-Trifluoromethyl-phenoxy)phenoxy)-4H-thieno[3,2-d][1,3]oxazin-4-one]
32 | ≤ 1000 | < 100 | O=c1oc(Nc2ccc(Sc3ccccc3)cc2)nc2sccc12 [Compound 16, 2-(4-Phenylthio)phenylamino-4H-thieno[2,3-d][1,3]oxazin-4-one]
33 |  | < 100 | CCCCCCCCCCCCNc1nc2sc(C)cc2c(=O)o1 [Compound 18, 2-Dodecylamino-6-methyl-4H-thieno[2,3-d][1,3]oxazin-4-one]
34 |  | < 100 | CCCCCCCCCCCCN(C)c1nc2sc(C)cc2c(=O)o1 [Compound 19, 2-N-Dodecyl-N-methylamino-6-methyl-4H-thieno[2,3-d][1,3]oxazin-4-one]
35 |  | < 100 | CCCCCCCCCCCCNc1nc2sccc2c(=O)o1 [Compound 20, 2-Dodecylamino-4H-thieno[2,3-d][1,3]oxazin-4-one]
36 |  | < 100 | CCCCCCCCCCCCSc1nc2sc(C)cc2c(=O)o1 [Compound 21, 2-Dodecylthio-6-methyl-4H-thieno[2,3-d][1,3]oxazin-4-one]
37 |  | < 100 | O=c1oc(Nc2ccc(S(=O)(=O)c3ccccc3)cc2)nc2sccc12 [Compound 23, 2-(4-Phenylsulfonyl)phenylamino-4H-thieno[2,3-d][1,3]oxazin-4-one]
38 |  | < 100 | O=C(Nc1ccccc1)c1ccc(Nc2nc3sccc3c(=O)o2)cc1 [Compound 24, 2-(4-Phenylcarbamoyl)phenylamino-4H-thieno[2,3-d][1,3]oxazin-4-one]
